# Results from US8119675B2, “Benzimidazole derivatives” (Merck Patent GmbH, priority 2007, dated 2012).
# Experiments:
# SGLT2 = biological target: T1, SGLT2 (Homo sapiens, UniProt P31639); assay: 14C-AMG uptake in BHK cells transfected with SGLT2 (96-well cell-based assay); details: 2 mM AMG, 37° C., 90 min
# T1 construct: expressed in transfected cells
# T1 sequence (P31639 1-672): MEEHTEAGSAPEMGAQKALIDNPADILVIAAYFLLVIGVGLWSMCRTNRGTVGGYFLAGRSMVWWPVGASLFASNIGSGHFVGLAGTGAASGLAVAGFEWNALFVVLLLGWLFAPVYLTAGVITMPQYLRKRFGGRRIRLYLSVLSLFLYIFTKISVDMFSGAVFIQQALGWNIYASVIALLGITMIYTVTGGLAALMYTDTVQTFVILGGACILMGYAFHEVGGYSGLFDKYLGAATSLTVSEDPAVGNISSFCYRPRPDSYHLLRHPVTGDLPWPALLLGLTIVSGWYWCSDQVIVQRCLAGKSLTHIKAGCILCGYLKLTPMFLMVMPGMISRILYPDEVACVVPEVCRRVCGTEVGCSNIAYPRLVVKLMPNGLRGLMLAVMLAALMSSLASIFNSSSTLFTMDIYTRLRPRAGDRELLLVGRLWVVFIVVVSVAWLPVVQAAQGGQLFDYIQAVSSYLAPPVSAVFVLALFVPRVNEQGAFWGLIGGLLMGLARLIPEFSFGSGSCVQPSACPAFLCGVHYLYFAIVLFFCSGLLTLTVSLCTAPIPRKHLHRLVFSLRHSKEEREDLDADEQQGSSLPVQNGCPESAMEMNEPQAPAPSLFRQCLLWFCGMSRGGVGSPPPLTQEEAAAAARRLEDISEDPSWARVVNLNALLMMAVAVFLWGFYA
# Description: (§1) The compounds can be tested for their SGLT inhibition properties by means of BHK cells expressing SGLT1 and SGLT2. The production of the cells and the testing can be carried out as described below.
# To construct the SGLT2 expression vector (KL224), the SLC5A2 gene (homologous to NM_003041) was amplified from a cDNA library using standard PCR technology and cloned over NheI/XhoI sites into PCI-neo expression vector (Promega) containing neomycin as a selection marker. In this vector, transcription uses the enhancer/promoter of human cytomegalovirus and the SV40 polyadenylation signal.
# (§2) The final vector KL224 together with an additional vector containing a dihydrofolate reductase gene as a selection marker was introduced into cells. Transfection into BHK21 cells (ATCC CCL-10), cultivated in DMEM medium (GIBCO/BRL), supplemented with 10% foetal calf serum (FCS) and 20 mM glutamine, was carried out using calcium phosphate transfections according to Graham, F. L. and van der Ebb, A. J. (1973), Virology 52: 456 with 5-20 μg of uncut plasmids for 10^7 cells. Stable transfectants were selected in medium containing 1 mg/ml of G418 (GIBCO/BRL) and 20-5000 nM methotrexate as final concentration, where only cells which expressed the neomycin gene and overexpressed the dhfr gene were able to grow. After growth for 2-3 weeks, the cells were cloned (0.5 cells/well) and the clones were investigated for SGLT expression in radioactivity uptake tests.
# (§3) The uptake of ^14C-α-methyl-D-glucopyranoside (AMG) in, for example, Xenopus oocytes injected with the corresponding cRNA has been described in principle (for example Wen-Sen Lee et al. (1994), J. Biol. Chem. 269, 12032-12039; Guofeng You et al. (1995), J. Biol. Chem. 270, 29365-29371).
# (§4) A 96-well cell-based assay was developed and adapted to HTS requirements:
# (§5) BHK cells (transfected with SGLT1 or SGLT2) were seeded into 96-well microtitre plates (Cultureplates, Perkin Elmer). After at least 24 h, medium was removed, and the cell layer was washed with assay buffer (140 mM NaCl, 2 mM KCl, 1 mM CaCl2, 1 mM MgCl2, 10 mM HEPES, 5 mM Tris, adjusted to pH 7.4 using 1 M KOH). After addition of 40 μl of assay buffer, 50 μl of AMG (50 μM for SGLT1 and 2 mM for SGLT2) in the presence or absence of compounds, the cells were incubated in a total volume of 100 μl at 37° C. for 90 min. Supernatant was removed by suction and discarded. Cells were washed and lysed by addition of 50 μl of water. After 10 min at room temperature, 200 μl of Micrsoscint 40 (Perkin Elmer) were added. The radioactivity was counted in a Topcount microplate scintillation counter (Perkin Elmer). The non-specific uptake was determined in sodium-free assay buffer (266 mM sucrose, 2 mM KCl, 1 mM CaCl2, 1 mM MgCl2, 10 mM HEPES, 5 mM Tris, adjusted to pH 7.4 using 1 M KOH).
# SGLT1 = biological target: T2, SGLT1 (Homo sapiens, UniProt P13866); assay: 14C-AMG uptake in BHK cells transfected with SGLT1 (96-well cell-based assay); details: 50 μM AMG, 37° C., 90 min
# T2 construct: expressed in transfected cells
# T2 sequence (P13866 1-664): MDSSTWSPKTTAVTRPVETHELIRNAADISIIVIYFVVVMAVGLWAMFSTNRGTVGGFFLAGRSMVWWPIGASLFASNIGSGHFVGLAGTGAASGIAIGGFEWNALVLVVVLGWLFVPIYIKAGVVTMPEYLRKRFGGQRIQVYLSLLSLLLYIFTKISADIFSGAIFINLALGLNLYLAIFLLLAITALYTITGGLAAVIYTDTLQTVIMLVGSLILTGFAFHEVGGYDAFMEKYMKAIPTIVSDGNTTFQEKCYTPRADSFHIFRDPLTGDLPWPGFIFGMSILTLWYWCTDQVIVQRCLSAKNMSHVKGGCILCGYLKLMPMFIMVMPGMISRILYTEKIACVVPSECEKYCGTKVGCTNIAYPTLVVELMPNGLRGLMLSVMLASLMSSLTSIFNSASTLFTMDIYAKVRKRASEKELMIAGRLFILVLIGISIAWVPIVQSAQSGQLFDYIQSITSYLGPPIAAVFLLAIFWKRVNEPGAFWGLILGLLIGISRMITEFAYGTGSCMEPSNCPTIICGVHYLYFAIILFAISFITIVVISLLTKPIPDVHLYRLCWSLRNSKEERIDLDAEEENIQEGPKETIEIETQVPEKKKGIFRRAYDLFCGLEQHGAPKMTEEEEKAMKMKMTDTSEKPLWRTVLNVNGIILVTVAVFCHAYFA
# Description: as §1
# To construct the SGLT1 expression vector (KL225), the SLC5A1 gene (homologous to NM_000343) was amplified from a cDNA library using standard PCR technology and cloned over NheI/XhoI sites into the pcDNA3.1 expression vector (Invitrogen) containing neomycin as a selection marker. In this vector, transcription uses the enhancer/promoter of human cytomegalovirus.
# as §2, with “KL225” for “KL224”
# as §3, §4, §5
compound,measurement,setting,value
"COc1cccc(OCC(N)=O)c1-c1nc2ccccc2n1Cc1c(C)cccc1C [Compound A15, 2-{2-[1-(2,6-Dimethylbenzyl)-1H-benzimidazol-2-yl]-3-methoxyphenoxy}acetamide]",IC50,SGLT2,0.01 to 1 µM
same,IC50,SGLT1,> 10 µM
"COc1ccc(-c2nc3ccccc3n2Cc2c(C)cccc2C)c(OCC(N)=O)c1 [Compound A13, 2-{2-[1-(2,6-Dimethylbenzyl)-1H-benzimidazol-2-yl]-5-methoxyphenoxy}acetamide]",IC50,SGLT2,1 to 10 µM
same,IC50,SGLT1,> 10 µM
"Cc1cccc(C)c1C(=O)n1c(-c2ccccc2OCC(N)=O)nc2ccccc21 [Compound A25, 2-{2-[1-(2,6-Dimethylbenzoyl)-1H-benzimidazol-2-yl]phenoxy}acetamide]",IC50,SGLT2,> 10 µM
same,IC50,SGLT1,> 10 µM
"Cc1cccc(C)c1Cn1c(-c2cccc(C)c2OCC(N)=O)nc2ccccc21 [Compound A12, 2-{2-[1-(2,6-Dimethylbenzyl)-1H-benzimidazol-2-yl]-6-methylphenoxy}acetamide]",IC50,SGLT2,1 to 10 µM
same,IC50,SGLT1,> 10 µM
"Cc1cccc(C)c1Cn1c(-c2ccccc2OCC(N)=O)nc2cc(F)c(F)cc21 [Compound A5, 2-{2-[1-(2,6-Dimethylbenzyl)-5,6-difluoro-1H-benzimidazol-2-yl]phenoxy}acetamide]",IC50,SGLT2,0.01 to 1 µM
same,IC50,SGLT1,> 10 µM
"Cc1cccc(C)c1Cn1c(-c2ccccc2OCC(N)=O)nc2cccc(Br)c21 [Compound A23, 2-{2-[7-Bromo-1-(2,6-dimethylbenzyl)-1H-benzimidazol-2-yl]phenoxy}acetamide]",IC50,SGLT2,> 10 µM
same,IC50,SGLT1,> 10 µM
"NC(=O)COc1ccccc1-c1nc2ccccc2n1Cc1c(F)cccc1Cl [Compound A20, 2-{2-[1-(2-Chloro-6-fluorobenzyl)-1H-benzimidazol-2-yl]phenoxy}acetamide]",IC50,SGLT2,1 to 10 µM
same,IC50,SGLT1,> 10 µM
"Cc1cccc(Cl)c1Cn1c(-c2ccccc2OCC(N)=O)nc2ccccc21 [Compound A22, 2-{2-[1-(2-Chloro-6-methylbenzyl)-1H-benzimidazol-2-yl]phenoxy}acetamide]",IC50,SGLT2,1 to 10 µM
same,IC50,SGLT1,> 10 µM
"Cc1cccc(C)c1Cn1c(-c2ncccc2OCC(N)=O)nc2ccccc21 [Compound A16, 2-{2-[1-(2,6-Dimethylbenzyl)-1H-benzimidazol-2-yl]pyridin-3-yloxy}acetamide]",IC50,SGLT2,> 10 µM
"Cc1cccc(C)c1Cn1c(-c2cccc(F)c2OCC(N)=O)nc2ccccc21 [Compound A10, 2-{2-[1-(2,6-Dimethylbenzyl)-1H-benzimidazol-2-yl]-6-fluorophenoxy}acetamide]",IC50,SGLT2,0.01 to 1 µM
same,IC50,SGLT1,> 10 µM
"Cc1cccc(C)c1Cn1c(-c2ccc(F)cc2OCC(N)=O)nc2ccccc21 [Compound A17, 2-{2-[1-(2,6-Dimethylbenzyl)-1H-benzimidazol-2-yl]-5-fluorophenoxy}acetamide]",IC50,SGLT2,0.01 to 1 µM
same,IC50,SGLT1,> 10 µM
"Cc1cccc(C)c1Cn1c(-c2ccccc2OCC(N)=O)nc2ccc(F)c(F)c21 [Compound A29, 2-{2-[1-(2,6-Dimethylbenzyl)-6,7-difluoro-1H-benzimidazol-2-yl]phenoxy}acetamide]",IC50,SGLT2,1 to 10 µM
same,IC50,SGLT1,> 10 µM
"Cc1cc(C)c(Cn2c(-c3ccccc3OCC(N)=O)nc3ccc(F)cc32)c(C)c1 [Compound A6, 2-{2-[6-Fluoro-1-(2,4,6-trimethylbenzyl)-1H-benzimidazol-2-yl]phenoxy}acetamide]",IC50,SGLT2,> 10 µM
same,IC50,SGLT1,> 10 µM
"Cc1cccc(C)c1Cn1c(-c2ccccc2OC2CCNC2=O)nc2ccccc21 (centres unmarked) [Compound A26, 3-{2-[1-(2,6-Dimethylbenzyl)-1H-benzimidazol-2-yl]phenoxy}pyrrolidin-2-one]",IC50,SGLT2,1 to 10 µM
same,IC50,SGLT1,> 10 µM
"Cc1cccc(C)c1Cn1c(-c2ccccc2OCC(N)=O)nc2ccc(F)cc21 [Compound A4, 2-{2-[1-(2,6-Dimethylbenzyl)-6-fluoro-1H-benzimidazol-2-yl]phenoxy}acetamide]",IC50,SGLT2,0.01 to 1 µM
same,IC50,SGLT1,> 10 µM
CNc1nnc(-c2ccccc2-c2nc3ccccc3n2Cc2c(C)cccc2C)o1 [Compound A31],IC50,SGLT2,0.01 to 1 µM
"Cc1ccccc1Cn1c(-c2ccccc2OCC(N)=O)nc2ccccc21 [Compound A7, 2-{2-[1-(2-Methylbenzyl)-1H-benzimidazol-2-yl]-phenoxy}acetamide]",IC50,SGLT2,1 to 10 µM
same,IC50,SGLT1,> 10 µM
"Cc1cccc(C)c1Cn1c(-c2ccccc2OCC(N)=O)nc2cccc(Cl)c21 [Compound A24, 2-{2-[7-Chloro-1-(2,6-dimethylbenzyl)-1H-benzimidazol-2-yl]phenoxy}acetamide]",IC50,SGLT2,0.01 to 1 µM
same,IC50,SGLT1,1 to 10 µM
"Cc1cccc(C)c1Cn1c(-c2ccccc2OCC(N)=O)nc2ccccc21 [Compound A2, 2-{2-[1-(2,6-dimethylbenzyl)-1H-benzimidazol-2-yl]-phenoxy}acetamide]",IC50,SGLT2,0.01 to 1 µM
same,IC50,SGLT1,> 10 µM
"Cc1cccc(C)c1Cn1c(-c2c(F)cccc2OCC(N)=O)nc2ccccc21 [Compound A3, 2-{2-[1-(2,6-Dimethylbenzyl)-1H-benzimidazol-2-yl]-3-fluorophenoxy}acetamide]",IC50,SGLT2,0.01 to 1 µM
"COc1cccc(-c2nc3ccccc3n2Cc2c(C)cccc2C)c1OCC(N)=O [Compound A11, 2-{2-[1-(2,6-Dimethylbenzyl)-1H-benzimidazol-2-yl]-6-methoxyphenoxy}acetamide]",IC50,SGLT2,1 to 10 µM
